Measured values published in ChEMBL document CHEMBL1140642, “Human serum albumin binding assay based on displacement of a non selective fluorescent inhibitor” (Bioorg Med Chem Lett, 2007).

Assays:
[1] = molecular target: T1, Albumin (Homo sapiens, UniProt P02768); experiment: Displacement of [C13]-methyl oleic acid from ibuprofen site of human serum albumin by NMR
[2] = molecular target: T1, Albumin; experiment: Displacement of [C13]-methyl oleic acid from warfarin site of human serum albumin by NMR

T1 sequence (P02768 whole entry): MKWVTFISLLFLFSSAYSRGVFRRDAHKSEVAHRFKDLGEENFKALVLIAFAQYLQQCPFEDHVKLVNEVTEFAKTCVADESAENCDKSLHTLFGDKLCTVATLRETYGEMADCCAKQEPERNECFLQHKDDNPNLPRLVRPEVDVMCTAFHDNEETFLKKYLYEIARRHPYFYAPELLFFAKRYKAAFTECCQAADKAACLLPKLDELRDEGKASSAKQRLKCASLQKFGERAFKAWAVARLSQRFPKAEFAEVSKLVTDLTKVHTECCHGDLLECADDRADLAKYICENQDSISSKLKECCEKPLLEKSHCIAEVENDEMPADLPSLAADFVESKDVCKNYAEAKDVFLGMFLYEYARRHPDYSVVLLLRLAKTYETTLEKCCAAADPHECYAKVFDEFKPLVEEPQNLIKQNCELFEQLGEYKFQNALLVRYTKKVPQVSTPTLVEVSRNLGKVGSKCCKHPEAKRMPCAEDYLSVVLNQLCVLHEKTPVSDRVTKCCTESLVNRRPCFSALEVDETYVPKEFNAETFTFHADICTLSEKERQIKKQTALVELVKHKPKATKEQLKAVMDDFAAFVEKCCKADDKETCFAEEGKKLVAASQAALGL

- Activity [1]: Active
- Activity [2]: Active
SMILES: Cn1c(/C=C/c2ccc(C#N)cc2C(=O)O)cc2ccccc21
